Test results published in US12398093B2, “Compounds and methods for treating inflammatory disorders” (Board of Supervisors of Louisiana State University and …, priority 2019, dated 2025).
“And” between values parts separate entries of the source, which are not always exact repeats. Identical values can stand only once. Like-named read-outs stand apart in the source and are kept apart here. Marks after values point to notes of the source that are not given here.

Experiments:
[1] = In vitro protein binding in human plasma; format: in vitro ADME; settings: 1.0×10^−5 M; for % Protein bound, 1st / % Protein bound, 2nd / % Protein bound, Mean: human plasma; for recovery: human, plasma, protein binding assay
5-HTB = 5-HTB (Rattus norvegicus, UniProt P28564); experiment: Radioligand binding, antagonist radioligand [125I]CYP
human 5-HT2A receptor = target: T1, human 5-HT2A receptor (Homo sapiens, UniProt P28223); experiment: Gq-mediated calcium transients (calcium mobilization), Fluo-4, HEK cells; format: cell-based
T1 construct: expressed in transfected cells

[2] = log D at physiological pH; format: physicochemical; settings: pH 7.4
Text: This differential in the physico-chemical properties could be one of the drivers in the observed increased plasma protein binding capability of 2Ci-Bu in comparison to R-DOI and the moderate changes in the Caco-2 A-B/B-A permeability profiles.

5-HT2B (h) = 5-HT2B (h) (Homo sapiens, UniProt P41595); experiment: Radioligand binding, agonist radioligand [125I](±)DOI
5-HT2C (h) = target: T2, 5-HT2C (h) (Homo sapiens, UniProt P28335); experiment: as above
T2 sequence (P28335 33-458): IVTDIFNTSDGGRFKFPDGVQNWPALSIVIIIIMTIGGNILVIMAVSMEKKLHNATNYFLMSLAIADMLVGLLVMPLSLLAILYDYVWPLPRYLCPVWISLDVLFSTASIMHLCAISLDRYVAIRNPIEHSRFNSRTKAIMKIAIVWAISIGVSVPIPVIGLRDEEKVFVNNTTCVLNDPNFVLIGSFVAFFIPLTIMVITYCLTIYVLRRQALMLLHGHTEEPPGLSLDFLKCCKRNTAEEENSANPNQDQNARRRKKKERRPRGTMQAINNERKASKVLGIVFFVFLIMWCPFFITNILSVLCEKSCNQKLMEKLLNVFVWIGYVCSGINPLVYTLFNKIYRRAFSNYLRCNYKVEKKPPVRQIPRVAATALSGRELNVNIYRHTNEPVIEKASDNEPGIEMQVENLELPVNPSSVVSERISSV

C57BL/6J mice = experiment: Head twitch response (HTR), magnetometer detection; format: in vivo; settings: for HTR counts, mean: 30-minute session; for ED50: Mus musculus
Experimental: The head twitch response (HTR) can be used as a behavioral proxy in rodents for human hallucinogenic effects, because it can reliably distinguish hallucinogenic and non-hallucinogenic 5-HT2A receptor agonists. […] HTR studies were conducted with (R)-DOI and 2C-iBu in C57BL/6J mice.
Male C57BL/6J mice (6-8 weeks old) obtained from Jackson Laboratories (Bar Harbor, ME, USA) were housed at up to four per cage in a climate-controlled room on a reverse-light cycle (lights on at 1900 h, off at 0700 h) and were provided with ad libitum access to food and water, except during behavioral testing. Testing was conducted between 1000 and 1800 h.
Drug doses are based on the equivalent freebase weight. Test substances were dissolved in sterile isotonic saline and injected subcutaneously (SC) at a volume of 5 mL/kg.
The HTR was assessed using a head-mounted magnet and a magnetometer detection coil, according to known methods. Briefly, mice were anesthetized, a small incision was made in the scalp, and a small neodymium magnet was attached to the dorsal surface of the cranium using dental cement. Following a two-week recovery period, HTR experiments were carried out in a well-lit room with at least seven days between sessions to avoid carryover effects. Test compounds were injected immediately prior to testing. Mice were injected with drug or vehicle and then HTR activity was recorded in a glass cylinder surrounded by a magnetometer coil. Coil voltage was low-pass filtered (2-10 kHz cutoff frequency), amplified, and digitized (20 kHz sampling rate) using a Powerlab/8SP with LabChart v 7.3.2 (ADInstruments, Colorado Springs, CO, USA), then filtered off-line (40-200 Hz band-pass).
Experiment 1. Five groups of mice (n=6/group, 30 total) were treated with vehicle or R-DOI (0.1, 0.3, 1, or 3 mg/kg) and HTR activity was assessed for 30 minutes. Experiment 2. Five groups of mice (n=6-7/group, 34 total) were treated with vehicle or 2C-iBu (0.3, 1, 3, or 10 mg/kg) and HTR activity was assessed for 30 minutes. Experiment 3. Two groups of mice (n=7/group, 14 total) were treated with R-DOI (1 mg/kg) or 2C-iBu (3 mg/kg) and HTR activity was assessed for 210 minutes.
For Experiment 1 and Experiment 2, the entire thirty-minute recordings were examined for head twitches, head twitch counts were analyzed using one-way analyses of variance (ANOVA). In addition, HTR counts were analyzed in two-minute time blocks using one-way ANOVAs, with time as a repeated measure. Post hoc pairwise comparisons between selected groups were performed using Tukey's studentized range method.
A Gaussian distribution was used to fit biphasic HTR dose-response data:
[formula] [formula] In these equations, E is the drug effect, Baseline is the response in the control group, Range is the distance from Baseline to the top of the curve, [A] is the dose of the drug, and midA is the logarithm of the dose corresponding to the top of the curve. To determine whether potency differences exist between individual compounds, ED50 values were compared using an extra-sum-of-squares F-test.
For Experiment 3, HTR counts were examined in 5-min time blocks. To determine the half-life of drug responses, the descending phase of the data was fitted with a one-phase exponential decay function. The responses produced by R-(−)-DOI (1 mg/kg) or ELEU02 were analyzed using one-way ANOVA, with time as a repeated measure. Post hoc pairwise comparisons between groups were performed using Sidak's multiple comparisons test.

[3] = In vitro metabolism, intrinsic clearance in human liver microsomes; format: in vitro ADME; settings: for Clint: human liver microsomes intrinsic clearance; for Clint / half-life / % Compound Remaining, 1st / % Compound Remaining, 2nd / % Compound Remaining, Mean: 1.0×10^−7 M; for microsomal CLint / half-life: human, human liver microsomes
[4] = HEK293, read-out: EMAX (%) calcium mobilization
[5] = sc, read-out: ED50 for induction of HTR, based on molar mass
[6] = SC, freebase weight, read-out: ED50 for induction of HTR
[7] = read-out: Half-life (minutes), 1st
[8] = read-out: Half-life (minutes), 2nd
[9] = read-out: Half-life (minutes), Mean

T1 sequence (P28223 whole entry): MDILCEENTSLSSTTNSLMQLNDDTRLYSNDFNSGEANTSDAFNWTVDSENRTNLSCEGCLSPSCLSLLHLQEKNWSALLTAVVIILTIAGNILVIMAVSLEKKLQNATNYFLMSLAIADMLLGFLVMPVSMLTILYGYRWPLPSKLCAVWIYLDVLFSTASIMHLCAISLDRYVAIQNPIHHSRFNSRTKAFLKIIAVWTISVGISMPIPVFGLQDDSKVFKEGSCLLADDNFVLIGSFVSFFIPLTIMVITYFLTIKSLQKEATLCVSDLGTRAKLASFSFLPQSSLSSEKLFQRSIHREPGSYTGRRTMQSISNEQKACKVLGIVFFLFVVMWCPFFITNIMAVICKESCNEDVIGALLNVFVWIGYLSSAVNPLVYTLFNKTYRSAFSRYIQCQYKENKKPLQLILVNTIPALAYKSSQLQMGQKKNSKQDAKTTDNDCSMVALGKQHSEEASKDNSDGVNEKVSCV
5-HTB, sequence (P28564 whole entry): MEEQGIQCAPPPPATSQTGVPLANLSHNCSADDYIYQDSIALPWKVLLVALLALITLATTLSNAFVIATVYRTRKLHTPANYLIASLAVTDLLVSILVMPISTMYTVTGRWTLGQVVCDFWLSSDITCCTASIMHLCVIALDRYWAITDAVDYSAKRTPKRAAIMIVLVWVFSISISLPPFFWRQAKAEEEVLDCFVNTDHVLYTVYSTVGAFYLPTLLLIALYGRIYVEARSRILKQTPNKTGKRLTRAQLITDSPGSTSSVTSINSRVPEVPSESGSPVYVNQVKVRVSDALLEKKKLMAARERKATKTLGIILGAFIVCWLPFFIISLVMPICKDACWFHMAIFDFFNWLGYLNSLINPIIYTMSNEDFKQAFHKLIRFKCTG
5-HT2B (h), sequence (P41595 whole entry): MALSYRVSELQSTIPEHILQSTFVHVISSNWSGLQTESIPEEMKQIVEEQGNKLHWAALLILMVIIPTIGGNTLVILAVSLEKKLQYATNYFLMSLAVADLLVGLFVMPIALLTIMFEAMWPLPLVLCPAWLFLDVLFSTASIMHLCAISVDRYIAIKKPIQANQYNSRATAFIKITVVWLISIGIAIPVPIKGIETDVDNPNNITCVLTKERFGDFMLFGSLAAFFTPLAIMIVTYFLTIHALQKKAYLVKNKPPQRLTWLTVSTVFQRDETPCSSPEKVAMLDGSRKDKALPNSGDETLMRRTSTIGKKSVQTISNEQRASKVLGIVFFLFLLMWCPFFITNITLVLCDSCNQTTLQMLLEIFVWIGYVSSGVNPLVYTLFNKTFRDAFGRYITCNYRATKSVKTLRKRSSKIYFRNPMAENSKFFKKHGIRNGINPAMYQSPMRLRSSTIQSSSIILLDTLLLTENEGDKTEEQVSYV

COc1cc(CC(C)C)c(OC)cc1CCN [2C-iBu, 2,5-dimethoxy-4-isobutylphenethylamine]
% Protein bound, 1st [1]: 73.7%
% Protein bound, 2nd [1]: 74.5%
% Protein bound, Mean [1]: 74%
recovery ([1]; read-out: % Recovery, 1st): 107%
recovery ([1]; read-out: % Recovery, 2nd): 105%
recovery ([1]; read-out: % Recovery, Mean): 106%
Ki (5-HTB): 50.1 nM
EC50 (human 5-HT2A receptor): 2.19 nM
Emax (human 5-HT2A receptor; [4]): 88%
Emax (human 5-HT2A receptor; HEK293, read-out: EMAX Ca^2+): 103%
logD [2]: 1.64
Ki (5-HT2B (h)): 15.8 nM
Ki (5-HT2C (h)): 0.251 nM
HTR counts, mean (C57BL/6J mice; 0.3 mg/kg SC): 30.8 counts/30 min
HTR counts, mean (C57BL/6J mice; 1 mg/kg SC): 74.4 ** counts/30 min
HTR counts, mean (C57BL/6J mice; 3 mg/kg SC): 111.1±4.7 counts/30 min and 111.1 ** counts/30 min
HTR counts, mean (C57BL/6J mice; 10 mg/kg SC): 43.4* counts/30 min
Peak HTR counts (C57BL/6J mice; Experiment 3, 3 mg/kg SC): 20.1±3.5 counts/5 min
ED50 (C57BL/6J mice; [5]): 2.17 µmol/kg
ED50 (C57BL/6J mice; [6]): 0.7 mg/kg
fold lower behavioral potency than R-DOI (C57BL/6J mice; ratio of HTR ED50 values (μmol/kg)): ~3 fold
Clint [3]: <115.5
microsomal CLint [3]: < 116 µL/min/mg
half-life [3, 7]: > 60 min
half-life [3, 8]: 1020 min
half-life [3, 9]: > 60 min
% Compound Remaining, 1st ([3]; incubation 0 minutes): 100%
% Compound Remaining, 2nd ([3]; incubation 0 minutes): 100%
% Compound Remaining, Mean ([3]; incubation 0 minutes): 100%
% Compound Remaining, 1st ([3]; incubation 15 minutes): 91.0%
% Compound Remaining, 2nd ([3]; incubation 15 minutes): {126.7} %
% Compound Remaining, Mean ([3]; incubation 15 minutes): 91%
% Compound Remaining, 1st ([3]; incubation 30 minutes): 113.6%
% Compound Remaining, 2nd ([3]; incubation 30 minutes): 114.2%
% Compound Remaining, Mean ([3]; incubation 30 minutes): 114%
% Compound Remaining, 1st ([3]; incubation 45 minutes): 105.3%
% Compound Remaining, 2nd ([3]; incubation 45 minutes): 106.5%
% Compound Remaining, Mean ([3]; incubation 45 minutes): 106%
% Compound Remaining, 1st ([3]; incubation 60 minutes): 94.1%
% Compound Remaining, 2nd ([3]; incubation 60 minutes): 94.2%
% Compound Remaining, Mean ([3]; incubation 60 minutes): 94%

COc1cc(C[C@@H](C)N)c(OC)cc1I [R-DOI]
% Protein bound, 1st [1]: 47.5%
% Protein bound, 2nd [1]: 49.6%
% Protein bound, Mean [1]: 49%
recovery ([1]; read-out: % Recovery, 1st): 126%
recovery ([1]; read-out: % Recovery, 2nd): 126%
recovery ([1]; read-out: % Recovery, Mean): 126%
Ki (5-HTB): 2510 nM
Emax (human 5-HT2A receptor; [4]): 112%
logD [2]: 1.04
Ki (5-HT2B (h)): 2.51 nM
Ki (5-HT2C (h)): 0.631 nM
HTR counts, mean (C57BL/6J mice; 0.1 mg/kg SC): 46.5 counts/30 min
HTR counts, mean (C57BL/6J mice; 0.3 mg/kg SC): 78.8 ** counts/30 min
HTR counts, mean (C57BL/6J mice; 1 mg/kg SC): 128.0±13.2 counts/30 min and 128.0 ** counts/30 min
HTR counts, mean (C57BL/6J mice; 3 mg/kg SC): 116.0 ** counts/30 min
Peak HTR counts (C57BL/6J mice; Experiment 3, 1 mg/kg SC): 23.3±3.5 counts/5 min
ED50 (C57BL/6J mice; [5]): 0.63 µmol/kg
ED50 (C57BL/6J mice; [6]): 0.2 mg/kg
ED50 (C57BL/6J mice; administered IP, otherwise identical conditions, read-out: ED50 for induction of HTR): 0.66 µmol/kg
Clint [3]: <115.5
microsomal CLint [3]: < 116 µL/min/mg
half-life [3, 7]: 139 min
half-life [3, 8]: 188 min
half-life [3, 9]: > 60 min
% Compound Remaining, 1st ([3]; incubation 0 minutes): 100%
% Compound Remaining, 2nd ([3]; incubation 0 minutes): 100%
% Compound Remaining, Mean ([3]; incubation 0 minutes): 100%
% Compound Remaining, 1st ([3]; incubation 15 minutes): 90.0%
% Compound Remaining, 2nd ([3]; incubation 15 minutes): 101.6%
% Compound Remaining, Mean ([3]; incubation 15 minutes): 96%
% Compound Remaining, 1st ([3]; incubation 30 minutes): 79.6%
% Compound Remaining, 2nd ([3]; incubation 30 minutes): 105.3%
% Compound Remaining, Mean ([3]; incubation 30 minutes): 92%
% Compound Remaining, 1st ([3]; incubation 45 minutes): 77.0%
% Compound Remaining, 2nd ([3]; incubation 45 minutes): 82.1%
% Compound Remaining, Mean ([3]; incubation 45 minutes): 80%
% Compound Remaining, 1st ([3]; incubation 60 minutes): 74.3%
% Compound Remaining, 2nd ([3]; incubation 60 minutes): {91.4} %
% Compound Remaining, Mean ([3]; incubation 60 minutes): 74%
